US20050009739A1, “Formulation strategies in stabilizing peptides in organic solvents and in dried states” (priority 2002, published 2005)
Ends that are not written are not given here.

Columns and labels:
[1] = Stability of PACAP 66 in DMSO at 40° C. in the presence of different metal salts (RP-HPLC recovery, CE purity); assay type: physicochemical; settings: 2 mg/mL; for PACAP 66 degraded: 4 weeks, RP-HPLC
Protocol: Different metal salts, including ZnCl2, MgCl2, and CaCl2 were separately dissolved at 1 mM in DMSO, a non-aqueous organic solvent. PACAP 66 was then dissolved in these solutions at 2 mg/mL. The bulk solution was aliquoted into 2-mL screw-capped (with an o-ring) sterile polypropylene vials. These stability samples were incubated at 40° C. and analyzed at predetermined intervals.
More than 70% of PACAP 66 was degraded in DMSO in 4 weeks at 40° C. by RP-HPLC, but only approximately 10% of PACAP 66 was degraded in the presence of 1 mM ZnCl2 under the same storage conditions. […] The CE results were similar to the findings from the RP-HPLC analysis.

[2] = Stability of acidified, lyophilized PACAP 66 in DMSO at 40° C.; assay type: physicochemical; settings: for PACAP 66 degraded: 2 weeks
Protocol: Several acid solutions were prepared at 0.1%, including HCl, trifluoro acetic acid (TFA), and H3PO4 and cooled to 2-8° C. The cold acid solutions were then mixed with PACAP 66 at a PACAP 66:acid molar ratio of 1:10. After mixing, the cold PACAP 66 solutions were immediately placed inside a precooled freeze-drier and were lyophilized. The lyophilized material was further equilibrated in a desiccator containing P2O5 for at least one day to absorb additional moisture from the lyophilized peptide. The acidified and dried material was then dissolved in DMSO at 2 mg/mL and stability was conducted as described in the upper section.
The recovery of HCl-acidified PACAP 66 at the end of a 2-week period was 97% by RP-HPLC. However, the recovery could be slightly overestimated, as the corresponding purity of PACAP 66 in the sample was only 89% by RP-HPLC.
We understand that peptides can be hydrolyzed readily under acidic conditions in an aqueous solution. […] In the acidification of PACAP 66, the pH of acidified PACAP 66 solution was measured to be 2.2 after addition of TFA. At this pH, PACAP 66 should be rapidly hydrolyzed.

[3] = Stability of PACAP 66 solution at 300 mg/mL in DMSO at 40° C.; assay type: physicochemical; settings: 23 weeks
Description: (§1) To test whether a metal salt would stabilize PACAP 66 at a high peptide concentration in an organic solvent, a high concentration of a metal salt would be required, assuming a fixed ratio of metal and peptide is needed for stabilization. A metal salt, however, has limited solubility in an organic solvent Therefore, a similar preparation method was adopted for sample preparation of peptide-metal mixtures at high concentrations, as described under Acidification and Lyophilization of PACAP 66, supra. Briefly, a metal salt and the peptide were first dissolved at a fixed molar ratio in an aqueous solution. The solution was then aliquoted in 3-mL glass vials at a fixed volume and lyophilized. Stability samples were prepared by adding a fixed amount of an organic solvent in the vial. The sample vials were then capped, sealed, and incubated at 40° C. Stability samples were first diluted to a reasonable concentration before analysis by RP-HPLC or CE. Similarly, a peptide suspension was prepared by mixing a proper amount of an organic solvent in a sample vial containing the lyophilized mixture and incubated at 40° C. Stability of solid PACAP 66 was evaluated directly by incubating the sample vial containing the lyophilized mixture at 40° C.
PACAP 66 in the sample was acidified in the absence and presence of ZnCl2. Approximately 70% of the peptide was degraded in the control sample after storage for 23 weeks, while approximately 20% was degraded in the acidified samples in the presence or absence of ZnCl2.

[4] = Stability of PACAP 66 solution at 20 mg/mL in 1-methyl-2-pyrrolinidone at 40° C.; assay type: physicochemical; settings: acidified samples
Description: as §1
PACAP 66 in the sample was acidified in the absence and presence of ZnCl2.

[5] = Stability of PACAP 66 suspension at 20 mg/mL in 2-propanol at 40° C.; assay type: physicochemical; settings: suspension 20 mg/mL in 2-propanol
Description: as §1

[6] = Stability of PACAP 66 in a lyophilized state at 40° C.; assay type: physicochemical
Description: as §1

[7] = Stability of peptide in an aqueous solution; assay type: physicochemical
[8] = Solubility of peptide in organic solvents; assay type: physicochemical; settings: some organic solvents
[9] = pH 4; cited from earlier work

Row | Substance | stabilizing effect compared with the control ([1]; 1 mM CaCl2) | stabilizing effect compared with the control ([1]; 1 mM MgCl2) | PACAP 66 degraded ([1]; 1 mM ZnCl2) | PACAP 66 degraded ([1]; control without metal salt) | PACAP 66 degraded ([2]; acidified (HCl, TFA or H3PO4) and lyophilized PACAP 66, DMSO 2 mg/mL) | relative stabilization effect by acids ([2]; acidified and lyophilized PACAP 66 in DMSO) | PACAP 66 degraded ([2]; unprocessed PACAP 66 (control), DMSO 2 mg/mL) | peptide degraded ([3]; acidified (HCl), absence of ZnCl2) | peptide degraded ([3]; acidified (HCl), presence of ZnCl2) | peptide degraded ([3]; control sample) | effect of addition of ZnCl2 on stability [4] | effect of addition of ZnCl2 on storage stability [5] | effect of acidification on stability during storage [6] | effect of addition of ZnCl2 on stability ([6]; acidified) | effect of different metals on stability ([7]; aqueous solution, 40° C., zinc, magnesium or calcium) | effect of zinc oxide on stability ([7]; aqueous solution, zinc oxide at 10 mM (FIG. 1)) | stability in an aqueous environment ([7]; aqueous, 40° C. (FIG. 1)) | solubility in organic solvents [8] | stability in an aqueous solution [9]
1 | HSDAVFTDNYTRLRKQVAAKKYLQSIKNKRY [PACAP 66] | did not have any significant stabilizing effect | did not have any significant stabilizing effect | approximately 10% | More than 70% | less than 10% | HCl >TFA >H3PO4 | More than 50% | approximately 20% | approximately 20% | Approximately 70% | seems to stabilize PACAP 66 to a higher degree | significantly improved the storage stability | significantly stabilized the peptide | seems to stabilize the peptide to a higher degree | does not improve its stability | did not stabilize | not stable | dissolved easily | 
2 | Secretin: a PACAP-like peptide |  |  |  |  |  |  |  |  |  |  |  |  |  |  |  |  |  |  | can be degraded easily
